Patent publication EP0620231B1, “Human parvovirus B19 epitope-related peptide” (Shin-Etsu Chemical Co., Ltd., priority 1993, dated 1996)

What was measured:
[1] = system: anti-HPV B19 antibodies; test: Secondary screening: reactivity of free synthetic peptides with anti-HPV B19 antibodies; type: binding; details: for Reactivity with Anti-HPV B19 Antibodies: free peptides, symbols ⓞ, X printed without a legend
Excerpt: A secondary screening would be carried out to make clear the reactivity of a free peptide with the anti-HPV B19 antibodies. In this respect, the synthesis of such a free peptide should be performed while taking, into consideration, the degree of difficulty in synthesizing and purifying the corresponding amino acid sequence. Moreover, the number of amino acid residues in the free peptide should be determined after inquiring into possible structures of each amino acid sequence, i.e., the result of the secondary structure-determination using the computer program.
The foregoing primary screening was performed by preparing peptides each equally having 15 amino acid residues therein, but the secondary screening was carried out while preparing various peptides having variously changed amino acid residue numbers due to the reasons discussed above and the inventors have narrowed down to 6 amino acid sequences listed in the following Table 2.
Finally, 6 kinds of free peptides corresponding to the foregoing 6 amino acid sequences were synthesized and were inspected for the reactivity with the anti-HPV B19 antibodies. […]

[2] = system: IgM among the anti-HPV antibodies; test: Detection Example 2: ELISA detection of immunoglobulin M (IgM) in patient serum on immobilized peptide; type: binding; details: ELISA with HRP-labeled human IgM antibody; Fig. 5
Excerpt: In this example, the serum obtained from a patient infected with HPV B19 was inspected for the presence of an IgM antibody by the ELISA method. The same procedures used in Detection Example 1 were repeated to give an immobilized solid support and to carry out the same assay except that HRP-labeled human IgM antibody was substituted for the HRP-labeled human IgG antibody used in Detection Example 1.
The peptide of Formula (1) was used in this determination. In addition, the peptides of Formulae (2) and (3) were also used as comparative peptides. The results thus obtained are plotted on Fig. 5.

[3] = system: anti-HPV B19 antibody (IgG); test: Detection Example 1: ELISA detection of immunoglobulin G (IgG) in patient serum on immobilized peptide; type: binding, human; details: Fig. 4
Description: In this example, the serum obtained from a patient infected with HPV B19 was inspected for the presence of an IgG antibody by the ELISA method. A microtiter plate made of polystyrene was used as a solid support. A peptide solution whose peptide concentration was adjusted to 10µg/mℓ with a phosphate buffer was dispensed to the wells (100µℓ each) of the plate and then the peptide was allowed to be immobilized at room temperature overnight to give an immobilized solid support. The immobilized solid support was then treated with blocking agent for inhibiting any non-specific adsorption reaction of unlinked sites present on the solid support with the IgG antibody. […]
The microtiter plate was washed 6 times with a phosphate buffer, then horseradish peroxidase (HRP)-labeled anti-human IgG antibody which was diluted 1000 times with the same buffer was dispensed to the wells (100µℓ each) and they were reacted at 37°C for one hour. […] The colored product was inspected for the presence of HRP through determination of absorbance at a wavelength of 492 nm using a microtiter plate reader.
The peptide of Formula (1) was used in this determination. […] In Fig. 4, the time after onset of illness is plotted as abscissa and the absorbance as ordinate.

[4] = system: anti-HPV B19 antibodies; test: Detection Example 3: determination of IgG with peptide immobilized through biotin-avidin affinity; type: binding, human; details: biotinylated peptide on avidin plate, Fig. 6
Description: This Example is given for illustrating a method in which the immobilized solid support is prepared by immobilizing peptide onto the solid support through the use of the biotin-avidin affinity to thus determine the IgG antibody. First of all, a 250 µg/mℓ solution of biotin-N-hydroxysuccinimide ester (NHS-Biotin) was dispensed to wells (100µℓ each) of a microtiter plate of polystyrene carrying, on the surface, amino groups and the reaction was continued at 37 °C for 2 hours. Then the microtiter plate was washed 6 times with a phosphate buffer, a 50µg/mℓ solution of avidin was dispensed to the wells (100µℓ each) and they were reacted at 37 °C for one hour.
The biotinylated peptide used herein was obtained by coupling NHS-Biotin to the N-terminal of the protected peptide prepared in the same manner used in the foregoing Peptide Preparation Example followed by removal of the protective groups and purification carried out according to the same manner used in the foregoing Peptide Preparation Example. The resulting biotinylated peptide was washed 6 times with a phosphate buffer and subjected to blocking and assay according to the same method used in Detection Example 2.
The peptide of Formula (1) was used in this determination. In addition, the peptides of Formulae (2) and (3) were also used as comparative peptides. The results thus obtained are plotted on Fig. 6. […]

Compound | reactivity with the anti-HPV B19 antibodies compared with the peptide reported by Sato et al. ([1]; comparison with peptide VP2 328-344) | Reactivity with Anti-HPV B19 Antibodies [1] | reactivity with IgM among the anti-HPV antibodies [2] | reactivity with the anti-HPV B19 antibody (IgG) ([3]; ELISA, absorbance at 492 nm, serum diluted 200 times, peptide 10 µg/ml) | reactivity at the initial stage of the infection (the acute stage) ([3]; IgG ELISA, time after onset of illness) | reactivity at the initial stage of the infection (the acute stage) [4] | reactivity with the anti-HPV B19 antibodies [4]
CC[C@H](C)[C@H](NC(=O)CNC(=O)[C@@H](NC(=O)[C@@H](NC(=O)[C@H](Cc1ccc(O)cc1)NC(=O)[C@H](CCCCN)NC(=O)[C@H](CC(=O)O)NC(=O)[C@@H](NC(=O)[C@H](CC(=O)O)NC(=O)[C@H](Cc1c[nH]c2ccccc12)NC(=O)[C@H](Cc1c[nH]cn1)NC(=O)[C@H](Cc1c[nH]cn1)NC(=O)[C@H](Cc1ccc(O)cc1)NC(=O)[C@@H]1CCCN1C(=O)[C@@H](N)CCC(N)=O)[C@@H](C)O)C(C)C)[C@@H](C)O)C(=O)N[C@@H](CC(N)=O)C(=O)N[C@@H](C)C(=O)N[C@H](C(=O)N[C@@H](CO)C(=O)N[C@@H](Cc1c[nH]cn1)C(=O)NCC(=O)N[C@@H](CCC(N)=O)C(=O)N[C@H](C(=O)N[C@H](C(=O)N[C@@H](Cc1ccc(O)cc1)C(=O)O)[C@@H](C)O)[C@@H](C)O)[C@@H](C)CC [Formula (1)] | extremely high | ⓞ | high reactivity | high reactivity | strong reactivity | strong reactivity | high reactivity
CC(C)C[C@H](N)C(=O)N[C@@H](CCCNC(=N)N)C(=O)N1CCC[C@H]1C(=O)NCC(=O)N1CCC[C@H]1C(=O)N[C@H](C(=O)N[C@@H](CO)C(=O)N[C@@H](CCC(N)=O)C(=O)N1CCC[C@H]1C(=O)N[C@@H](Cc1ccc(O)cc1)C(=O)N[C@@H](Cc1c[nH]cn1)C(=O)N[C@@H](Cc1c[nH]cn1)C(=O)N[C@@H](Cc1c[nH]c2ccccc12)C(=O)N[C@@H](CC(=O)O)C(=O)N[C@H](C(=O)N[C@@H](CC(=O)O)C(=O)N[C@@H](CCCCN)C(=O)O)[C@@H](C)O)C(C)C [Formula (3), H-Leu-Arg-Pro-Gly-Pro-Val-Ser-Gln-Pro-Tyr-His-His-Trp-Asp-Thr-Asp-Lys-OH, reference compound] |  | ○ |  |  |  |  | 
